The subject of experiment [1] is purified 20S proteasome. The conditions noted are these: natural (−)-EGCG; cited from earlier work.
Experiment [2] concerns WI-38 cells. The experiment can be described thus: Western blot of p27 in normal WI-38 fibroblasts. Conditions: 25 μM, 36 hours. Type of experiment: cell-based, human. The method, then: Cell Culture, Cell Extract Preparation, and Western Blot Assay. Human leukemia Jurkat T and prostate cancer LNCaP cells were cultured in RPMI 1640 medium supplemented with 10% fetal calf serum, 100 units/ml of penicillin, and 100 μg/ml streptomycin. Human immortalized, non-transformed NK cells (YT cell line) (38) were cultured in RPMI 1640 supplemented with 1 mM MEM sodium pyruvate solution, 0.1 mM MEM non-essential amino acids solution, 10% fetal calf serum. 100 units/ml penicillin, and 100 μg/ml streptomycin. Normal (WI-38) and simian virus 40 (SV40)-transformed (VA-13) human fibroblasts were grown in Dulbecco's modified Eagle's medium supplemented with 10% fetal calf serum, 100 units/ml of penicillin and 100 μg/ml of streptomycin. All cells were maintained at 37° C. in a humidified incubator with an atmosphere of 5% CO2. A whole cell extract was prepared in accordance with An et al. (An, B. et al. Cell Death Differ, 1998, 5:1062-75). Briefly, cells were harvested, washed with PBS twice, and homogenized in a lysis buffer [50 mM Tris-HCl (pH 8.0), 5 mM EDTA, 150 mM NaCl, 0.5% NP-40, 0.5 mM phenylmethylsulfonyl fluoride, and 0.5 mM dithiothreitol] for 30 min at 4° C. […] The ratio of p27 or IκB-α to the corresponding actin was determined by scanning intensities of the protein bands. […]

The text below walks through data of patent publication US9399631B2, “Polyphenol proteasome inhibitors, synthesis, and methods of use” (UNIVERSITY OF SOUTH FLORIDA, priority 2003, dated 2016).

Consider `O=C(O[C@@H]1Cc2c(O)cc(O)cc2O[C@@H]1c1cc(O)c(O)c(O)c1)c1cc(O)c(O)c(O)c1` [(−)-EGCG, (−)-epigallocatechin-3-gallate, reference compound], for which the IC50 in experiment [1] was 100 to 200 nM.
For `O=C(N[C@@H]1Cc2c(O)cc(O)cc2O[C@@H]1c1cc(O)c(O)c(O)c1)c1cc(O)c(O)c(O)c1` [(−)-EGCG-amide, (−)-[2R,3R]-N-[5,7-Dihydroxy-2-(3,4,5-trihydroxyphenyl)-chroman-3-yl]-3,4,5-trihydroxybenzamide], the p27 levels entry in experiment [2] is given as “slightly increased”.
